Results: ChEMBL document CHEMBL4507266, “Data for DCP probe BAY-784” (2021)

How the values were obtained:
[1] = molecular target: T1, Sigma intracellular receptor 2 (Homo sapiens, UniProt Q5BJF2); assay: GPCRScan assay: inhibition of Sigma 2; set-up: radioligand conc. used [nm] 5.0, parental cells HEKT
[2] = molecular target: Receptor tyrosine-protein kinase erbB-3 (Homo sapiens) (UniProt P21860); conditions: Compound concentration 1000.0 nM
[3] = molecular target: RAC-gamma serine/threonine-protein kinase (Homo sapiens) (UniProt Q9Y243); conditions: Compound concentration 1000.0 nM
RAC-gamma serine/threonine-protein kinase (Homo sapiens), sequence (Q9Y243 whole entry): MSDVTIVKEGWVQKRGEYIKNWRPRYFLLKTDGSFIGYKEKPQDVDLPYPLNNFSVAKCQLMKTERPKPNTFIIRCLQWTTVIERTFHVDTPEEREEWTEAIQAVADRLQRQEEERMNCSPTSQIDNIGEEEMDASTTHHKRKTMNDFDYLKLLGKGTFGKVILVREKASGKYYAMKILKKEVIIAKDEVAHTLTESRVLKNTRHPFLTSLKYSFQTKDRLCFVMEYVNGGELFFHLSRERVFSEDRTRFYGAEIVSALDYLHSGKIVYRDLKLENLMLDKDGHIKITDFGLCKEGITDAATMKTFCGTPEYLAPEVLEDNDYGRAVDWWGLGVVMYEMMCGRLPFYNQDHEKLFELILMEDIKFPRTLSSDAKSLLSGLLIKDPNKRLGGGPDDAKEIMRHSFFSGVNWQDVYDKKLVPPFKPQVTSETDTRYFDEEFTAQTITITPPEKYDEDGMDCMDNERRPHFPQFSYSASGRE

[4] = tested on: Epidermal growth factor receptor (Homo sapiens), P00533 [UNDEFINED MUTATION]; conditions: Compound concentration 1000.0 nM
[5] = molecular target: Tyrosine-protein kinase JAK1 (Homo sapiens) (UniProt P23458); conditions: Compound concentration 1000.0 nM
[6] = molecular target: Serine/threonine-protein kinase D2 (Homo sapiens) (UniProt Q9BZL6); conditions: Compound concentration 1000.0 nM
[7] = molecular target: Tyrosine-protein kinase TXK (Homo sapiens) (UniProt P42681); conditions: Compound concentration 1000.0 nM
[8] = molecular target: T1, Sigma intracellular receptor 2; conditions: Compound concentration 10.0 uM
[9] = molecular target: Protein-tyrosine kinase 2-beta (Homo sapiens) (UniProt Q14289); conditions: Compound concentration 1000.0 nM
Protein-tyrosine kinase 2-beta (Homo sapiens), sequence (Q14289 whole entry, looked up): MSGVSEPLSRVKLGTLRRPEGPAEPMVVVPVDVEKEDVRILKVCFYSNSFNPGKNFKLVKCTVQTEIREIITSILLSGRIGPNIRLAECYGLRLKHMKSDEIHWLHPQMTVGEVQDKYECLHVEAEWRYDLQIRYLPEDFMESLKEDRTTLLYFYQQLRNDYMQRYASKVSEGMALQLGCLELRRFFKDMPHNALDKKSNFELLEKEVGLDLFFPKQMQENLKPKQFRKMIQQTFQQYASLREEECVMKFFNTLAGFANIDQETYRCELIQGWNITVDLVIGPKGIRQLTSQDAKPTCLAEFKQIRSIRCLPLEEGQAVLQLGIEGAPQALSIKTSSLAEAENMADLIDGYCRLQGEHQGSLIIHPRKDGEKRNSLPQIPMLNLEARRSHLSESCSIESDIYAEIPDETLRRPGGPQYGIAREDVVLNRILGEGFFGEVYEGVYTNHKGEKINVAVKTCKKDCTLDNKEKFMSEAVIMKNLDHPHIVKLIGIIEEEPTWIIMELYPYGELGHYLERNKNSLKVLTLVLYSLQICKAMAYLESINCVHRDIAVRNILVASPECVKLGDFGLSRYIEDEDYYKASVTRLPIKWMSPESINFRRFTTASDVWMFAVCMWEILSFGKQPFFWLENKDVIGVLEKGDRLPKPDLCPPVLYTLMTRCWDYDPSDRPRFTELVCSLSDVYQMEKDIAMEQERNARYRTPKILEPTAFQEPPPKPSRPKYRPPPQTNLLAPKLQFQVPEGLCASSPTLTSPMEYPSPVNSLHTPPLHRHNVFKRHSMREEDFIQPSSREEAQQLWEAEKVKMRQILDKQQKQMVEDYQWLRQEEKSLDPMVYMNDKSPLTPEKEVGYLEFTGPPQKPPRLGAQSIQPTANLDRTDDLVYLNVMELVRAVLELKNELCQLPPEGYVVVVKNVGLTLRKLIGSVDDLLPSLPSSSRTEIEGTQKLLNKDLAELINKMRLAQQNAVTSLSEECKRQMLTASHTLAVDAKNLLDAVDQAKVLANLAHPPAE

[10] = molecular target: Homeodomain-interacting protein kinase 4 (Homo sapiens) (UniProt Q8NE63); conditions: Compound concentration 1000.0 nM
Homeodomain-interacting protein kinase 4 (Homo sapiens), sequence (Q8NE63 whole entry): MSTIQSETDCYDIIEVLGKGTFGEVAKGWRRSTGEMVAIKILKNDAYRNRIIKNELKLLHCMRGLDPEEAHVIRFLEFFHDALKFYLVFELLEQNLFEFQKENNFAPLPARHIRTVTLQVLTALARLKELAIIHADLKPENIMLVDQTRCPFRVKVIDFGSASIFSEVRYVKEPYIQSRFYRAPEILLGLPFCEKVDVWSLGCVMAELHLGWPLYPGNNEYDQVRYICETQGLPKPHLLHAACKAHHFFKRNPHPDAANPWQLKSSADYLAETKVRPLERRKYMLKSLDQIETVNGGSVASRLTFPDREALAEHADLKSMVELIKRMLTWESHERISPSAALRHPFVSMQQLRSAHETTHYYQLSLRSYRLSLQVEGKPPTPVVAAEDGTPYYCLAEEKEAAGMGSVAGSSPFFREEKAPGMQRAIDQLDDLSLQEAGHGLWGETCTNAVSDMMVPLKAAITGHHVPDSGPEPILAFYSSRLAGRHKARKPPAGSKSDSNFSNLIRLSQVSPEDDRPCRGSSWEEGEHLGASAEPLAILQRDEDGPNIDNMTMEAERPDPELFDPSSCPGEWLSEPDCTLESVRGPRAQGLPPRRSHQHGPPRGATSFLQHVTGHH

[11] = molecular target: G protein-coupled receptor kinase 3 (Homo sapiens) (UniProt P35626); conditions: Compound concentration 1000.0 nM
[12] = tested on: Epidermal growth factor receptor (Homo sapiens), P00533 [G719C]; conditions: Compound concentration 1000.0 nM
[13] = molecular target: Cyclin-dependent kinase 16 (Homo sapiens) (UniProt Q00536); conditions: Compound concentration 1000.0 nM
[14] = molecular target: Myosin light chain kinase family member 4 (Homo sapiens) (UniProt Q86YV6); conditions: Compound concentration 1000.0 nM
Myosin light chain kinase family member 4 (Homo sapiens), sequence (Q86YV6 whole entry): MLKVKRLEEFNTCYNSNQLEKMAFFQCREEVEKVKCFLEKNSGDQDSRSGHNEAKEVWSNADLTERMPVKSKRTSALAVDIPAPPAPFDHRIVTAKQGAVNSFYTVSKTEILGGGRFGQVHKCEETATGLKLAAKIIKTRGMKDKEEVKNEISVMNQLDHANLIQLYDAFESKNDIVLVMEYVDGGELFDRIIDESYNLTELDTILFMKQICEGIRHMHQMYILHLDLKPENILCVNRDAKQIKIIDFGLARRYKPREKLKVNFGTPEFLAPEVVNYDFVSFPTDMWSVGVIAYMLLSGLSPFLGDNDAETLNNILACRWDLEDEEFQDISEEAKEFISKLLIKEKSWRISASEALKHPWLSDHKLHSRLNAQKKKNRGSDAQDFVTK

[15] = molecular target: Tyrosine-protein kinase Lyn (Homo sapiens) (UniProt P07948); conditions: Compound concentration 1000.0 nM
[16] = molecular target: Serine/threonine-protein kinase BRSK1 (Homo sapiens) (UniProt Q8TDC3); conditions: Compound concentration 1000.0 nM
[17] = molecular target: Serine/threonine-protein kinase BRSK2 (Homo sapiens) (UniProt Q8IWQ3); conditions: Compound concentration 1000.0 nM
[18] = molecular target: Myosin-IIIb (Homo sapiens) (UniProt Q8WXR4); conditions: Compound concentration 1000.0 nM
[19] = tested on: Hepatocyte growth factor receptor (Homo sapiens), P08581 [Y1235D]; conditions: Compound concentration 1000.0 nM
[20] = tested on: Proto-oncogene tyrosine-protein kinase receptor Ret (Homo sapiens), P07949 [V804L]; conditions: Compound concentration 1000.0 nM
Proto-oncogene tyrosine-protein kinase receptor Ret (Homo sapiens), P07949 [V804L], sequence (P07949 whole entry V804L): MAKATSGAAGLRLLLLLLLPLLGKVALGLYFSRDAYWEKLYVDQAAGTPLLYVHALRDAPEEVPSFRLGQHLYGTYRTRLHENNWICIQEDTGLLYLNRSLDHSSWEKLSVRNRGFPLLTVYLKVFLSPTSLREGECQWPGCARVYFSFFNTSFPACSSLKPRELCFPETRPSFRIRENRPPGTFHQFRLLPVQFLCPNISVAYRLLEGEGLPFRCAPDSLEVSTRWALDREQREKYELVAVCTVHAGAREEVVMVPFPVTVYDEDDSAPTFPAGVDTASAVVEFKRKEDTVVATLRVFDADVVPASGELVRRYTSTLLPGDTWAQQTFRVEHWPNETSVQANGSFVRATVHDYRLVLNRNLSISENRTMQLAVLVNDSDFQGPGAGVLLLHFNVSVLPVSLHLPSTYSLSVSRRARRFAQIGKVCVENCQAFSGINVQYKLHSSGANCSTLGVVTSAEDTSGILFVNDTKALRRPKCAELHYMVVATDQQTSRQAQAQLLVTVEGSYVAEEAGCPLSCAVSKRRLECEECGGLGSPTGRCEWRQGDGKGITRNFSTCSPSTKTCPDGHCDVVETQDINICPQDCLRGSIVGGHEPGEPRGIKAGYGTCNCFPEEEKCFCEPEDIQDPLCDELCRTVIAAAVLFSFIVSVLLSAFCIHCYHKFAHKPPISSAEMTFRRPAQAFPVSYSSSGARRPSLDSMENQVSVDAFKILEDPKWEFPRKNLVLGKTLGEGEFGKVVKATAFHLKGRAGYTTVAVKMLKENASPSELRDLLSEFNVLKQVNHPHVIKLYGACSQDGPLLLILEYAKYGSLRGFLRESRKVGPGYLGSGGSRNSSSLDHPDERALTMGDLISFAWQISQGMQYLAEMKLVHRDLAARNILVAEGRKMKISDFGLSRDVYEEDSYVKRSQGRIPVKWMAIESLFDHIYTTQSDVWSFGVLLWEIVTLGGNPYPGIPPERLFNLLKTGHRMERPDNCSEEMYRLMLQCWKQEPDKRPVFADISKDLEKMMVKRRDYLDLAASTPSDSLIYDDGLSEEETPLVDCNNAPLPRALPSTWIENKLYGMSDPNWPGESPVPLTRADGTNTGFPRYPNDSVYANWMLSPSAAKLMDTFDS

[21] = molecular target: Mitogen-activated protein kinase 4 (Homo sapiens) (UniProt P31152); conditions: Compound concentration 1000.0 nM
[22] = molecular target: Casein kinase I isoform gamma-1 (Homo sapiens) (UniProt Q9HCP0); conditions: Compound concentration 1000.0 nM
[23] = molecular target: Discoidin domain-containing receptor 2 (Homo sapiens) (UniProt Q16832); conditions: Compound concentration 1000.0 nM
[24] = molecular target: Cyclin-dependent kinase 18 (Homo sapiens) (UniProt Q07002); conditions: Compound concentration 1000.0 nM
[25] = molecular target: Mitogen-activated protein kinase 3 (Homo sapiens) (UniProt P27361); conditions: Compound concentration 1000.0 nM
[26] = molecular target: Phosphatidylinositol 4,5-bisphosphate 3-kinase catalytic subunit beta isoform (Homo sapiens) (UniProt P42338); conditions: Compound concentration 1000.0 nM
[27] = molecular target: Mitogen-activated protein kinase kinase kinase 1 (Homo sapiens) (UniProt Q13233); conditions: Compound concentration 1000.0 nM
[28] = tested on: Phosphatidylinositol 4,5-bisphosphate 3-kinase catalytic subunit alpha isoform (Homo sapiens), P42336 [Q546K]; conditions: Compound concentration 1000.0 nM
[29] = molecular target: Tyrosine-protein kinase Fes/Fps (Homo sapiens) (UniProt P07332); conditions: Compound concentration 1000.0 nM
[30] = molecular target: Serine/threonine-protein kinase MARK2 (Homo sapiens) (UniProt Q7KZI7); conditions: Compound concentration 1000.0 nM
Serine/threonine-protein kinase MARK2 (Homo sapiens), sequence (Q7KZI7 whole entry): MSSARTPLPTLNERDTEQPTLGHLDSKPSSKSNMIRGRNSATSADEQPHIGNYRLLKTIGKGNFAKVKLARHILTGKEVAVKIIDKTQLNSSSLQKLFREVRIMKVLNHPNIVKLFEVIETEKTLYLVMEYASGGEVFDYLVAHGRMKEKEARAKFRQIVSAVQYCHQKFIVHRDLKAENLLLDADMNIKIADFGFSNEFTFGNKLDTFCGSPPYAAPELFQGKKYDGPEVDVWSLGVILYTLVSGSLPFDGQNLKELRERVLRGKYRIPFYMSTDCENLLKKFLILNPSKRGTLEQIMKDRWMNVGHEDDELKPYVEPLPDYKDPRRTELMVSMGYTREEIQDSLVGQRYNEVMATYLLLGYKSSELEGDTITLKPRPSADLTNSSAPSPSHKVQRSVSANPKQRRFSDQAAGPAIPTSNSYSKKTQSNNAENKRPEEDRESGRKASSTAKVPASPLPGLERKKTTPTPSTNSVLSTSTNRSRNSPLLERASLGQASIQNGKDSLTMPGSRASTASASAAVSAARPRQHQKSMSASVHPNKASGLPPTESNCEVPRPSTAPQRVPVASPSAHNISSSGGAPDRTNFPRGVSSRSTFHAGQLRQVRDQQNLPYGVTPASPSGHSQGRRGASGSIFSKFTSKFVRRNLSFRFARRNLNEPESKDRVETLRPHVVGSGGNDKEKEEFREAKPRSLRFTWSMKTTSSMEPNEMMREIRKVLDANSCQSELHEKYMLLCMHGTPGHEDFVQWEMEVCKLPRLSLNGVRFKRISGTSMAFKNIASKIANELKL

[31] = tested on: Receptor-type tyrosine-protein kinase FLT3 (Homo sapiens), P36888 [UNDEFINED MUTATION]; conditions: Compound concentration 1000.0 nM
[32] = molecular target: Interleukin-1 receptor-associated kinase 4 (Homo sapiens) (UniProt Q9NWZ3); conditions: Compound concentration 1000.0 nM
[33] = molecular target: Dual specificity protein kinase CLK4 (Homo sapiens) (UniProt Q9HAZ1); conditions: Compound concentration 1000.0 nM
Dual specificity protein kinase CLK4 (Homo sapiens), sequence (Q9HAZ1 whole entry, looked up): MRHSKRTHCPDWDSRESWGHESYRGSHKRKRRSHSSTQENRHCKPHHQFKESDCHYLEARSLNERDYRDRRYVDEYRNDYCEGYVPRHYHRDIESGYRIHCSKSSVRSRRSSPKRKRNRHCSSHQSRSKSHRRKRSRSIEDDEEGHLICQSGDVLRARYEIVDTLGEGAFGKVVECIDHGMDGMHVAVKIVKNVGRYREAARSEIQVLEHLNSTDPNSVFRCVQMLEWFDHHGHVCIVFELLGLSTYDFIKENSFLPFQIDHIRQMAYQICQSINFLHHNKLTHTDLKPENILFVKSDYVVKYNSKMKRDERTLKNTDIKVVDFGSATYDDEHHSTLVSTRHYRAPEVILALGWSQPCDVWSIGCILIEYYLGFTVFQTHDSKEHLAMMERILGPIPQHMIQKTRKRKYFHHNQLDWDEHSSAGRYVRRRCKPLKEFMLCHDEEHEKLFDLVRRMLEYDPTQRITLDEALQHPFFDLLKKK

[34] = molecular target: Phosphatidylinositol 4-phosphate 5-kinase type-1 alpha (Homo sapiens) (UniProt Q99755); conditions: Compound concentration 1000.0 nM
[35] = molecular target: Myosin-IIIa (Homo sapiens) (UniProt Q8NEV4); conditions: Compound concentration 1000.0 nM
[36] = molecular target: Glycogen synthase kinase-3 beta (Homo sapiens) (UniProt P49841); conditions: Compound concentration 1000.0 nM
[37] = molecular target: Beta-1 adrenergic receptor (Homo sapiens) (UniProt P08588); conditions: Compound concentration 10.0 uM
[38] = molecular target: Serine/threonine-protein kinase PAK 3 (Homo sapiens) (UniProt O75914); conditions: Compound concentration 1000.0 nM
[39] = molecular target: Serine/threonine-protein kinase PAK 6 (Homo sapiens) (UniProt Q9NQU5); conditions: Compound concentration 1000.0 nM
[40] = molecular target: Phosphorylase b kinase regulatory subunit alpha, liver isoform (Homo sapiens) (UniProt P46019); conditions: Compound concentration 1000.0 nM

T1 sequence (Q5BJF2 whole entry): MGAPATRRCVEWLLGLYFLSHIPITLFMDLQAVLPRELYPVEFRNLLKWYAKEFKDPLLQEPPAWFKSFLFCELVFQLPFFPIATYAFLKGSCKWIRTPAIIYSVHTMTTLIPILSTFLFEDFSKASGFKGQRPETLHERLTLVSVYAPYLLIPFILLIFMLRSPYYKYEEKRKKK

What does the source list for `O=C(NCc1ncc(C(F)(F)F)cc1Cl)c1ccc2c(c1)C1(CCS(=O)(=O)CC1)[C@H](C1CC1)N2S(=O)(=O)c1ccc(F)cc1` [BAY-784]?
Ki [1]: 1110 nM; residual activity [2]: 100%; residual activity [3]: 100%; residual activity [4]: 100%; residual activity [5]: 87%; residual activity [6]: 98%; residual activity [7]: 100%; inhibition [8]: 74.9%; residual activity [9]: 100%; residual activity [10]: 100%; residual activity [11]: 99%; residual activity [12]: 78%; residual activity [13]: 100%; residual activity [14]: 100%; residual activity [15]: 100%; residual activity [16]: 100%; residual activity [17]: 100%; residual activity [18]: 74%; residual activity [19]: 100%; residual activity [20]: 92%; residual activity [21]: 91%; residual activity [22]: 86%; residual activity [23]: 78%; residual activity [24]: 100%; residual activity [25]: 100%; residual activity [26]: 68%; residual activity [27]: 63%; residual activity [28]: 76%; residual activity [29]: 100%; residual activity [30]: 100%; residual activity [31]: 76%; residual activity [32]: 100%; residual activity [33]: 0%; residual activity [34]: 100%; residual activity [35]: 100%; residual activity [36]: 87%; inhibition [37]: -0.08%; residual activity [38]: 91%; residual activity [39]: 100%; residual activity [40]: 96%

Which results are given for `O=C(NCc1ncc(C(F)(F)F)cc1Cl)c1ccc2c(c1)C1(CCS(=O)(=O)CC1)[C@@H](C1CC1)N2S(=O)(=O)c1ccc(F)cc1` [BAY-786]?
Ki [1]: 2000 nM; residual activity [2]: 100%; residual activity [3]: 86%; residual activity [4]: 85%; residual activity [5]: 85%; residual activity [6]: 90%; residual activity [7]: 83%; inhibition [8]: 52.7%; residual activity [9]: 100%; residual activity [10]: 97%; residual activity [11]: 100%; residual activity [12]: 90%; residual activity [13]: 80%; residual activity [14]: 95%; residual activity [15]: 100%; residual activity [16]: 100%; residual activity [17]: 100%; residual activity [18]: 100%; residual activity [19]: 100%; residual activity [20]: 100%; residual activity [21]: 89%; residual activity [22]: 90%; residual activity [23]: 67%; residual activity [24]: 100%; residual activity [25]: 83%; residual activity [26]: 75%; residual activity [27]: 68%; residual activity [28]: 72%; residual activity [29]: 93%; residual activity [30]: 63%; residual activity [31]: 58%; residual activity [32]: 90%; residual activity [33]: 100%; residual activity [34]: 100%; residual activity [35]: 100%; residual activity [36]: 90%; inhibition [37]: -1.82%; residual activity [38]: 89%; residual activity [39]: 100%; residual activity [40]: 84%
